How the values were obtained:
T. rubrum = test: PDT of T. rubrum on human stratum corneum (ex-vivo model), fungicidal effect; format: cell-based, Trichophyton rubrum; conditions: for relative frequency of the fungicidal effect: read day 8; for MIC (Minimum Inhibitory Concentration): 2 h incubation in water, 1 h 30 mW/cm^2 red light
Experimental: A polycarbonate membrane filter, 25 mm in diameter and a pore size of 2 μm (Whatman, Breda, The Netherlands) was placed in the central part of a 3 cm culture dish (Greiner, Alphen aan den Rijn, The Netherlands) filled with 5 ml of Malt Extract Agar (MEA). A circular piece of human stratum corneum (SC) with a diameter of 1 cm was subsequently placed on the membrane filter and both were gently brushed with a paintbrush dipped in 70% ethanol. A microconidia suspension isolated from Trichphyton rubrum (CBS nr. 304.60 obtained from Centraal Bureau voor Schimmelcultures, Utrecht, The Netherlands, and prepared as described by Smijs G. M. T. et al (2004) in “Photodynamic treatment of the dermatophyte Trichophyton Rubrum and its microconidia with porphyrin sensitizers. PhotoChemistry and PhotoBiology, 80, 197 - 202”) was diluted to 1000 CFU/ml and 15 μl was inoculated on the circular sheet of human SC. The dish was placed in an incubator at 28° C. and at 17 hours after spore inoculation photodynamic treatment (PDT) was applied.
At 17 hours after spore inoculation, the membrane filter with SC containing spore inoculates was transported from the MEA dish to a 3 cm culture dish filled with 1035 μl incubation medium. The incubation medium contained 1 ml of distilled water with an adjusted pH (3.5, 4.5, 5.2, or 7.4) and 35 μl of a Sylsens B stock solution (Buchem, Apeldoorn, the Nederland) . To optimize the contact of the inoculates with the incubation medium, the membrane filter with the SC was turned upside down during the incubation period of 2 hours. The incubation was performed under continuous shaking conditions. Shortly before the illumination period the membrane filter containing the SC was turned back (surface SC now faces the lamp). In all cases, the illumination time was 1 hour using a red light irradiance of 30 mW/cm^2. This corresponds to a light dose of 108 J/cm^2. After the illumination the membrane filter with the SC were transported to a fresh MEA dish, placed in a 28° C. incubator and fungal growth was followed for several weeks. Dark controls were included, i.e. the same procedure was carried out except that the inoculated microconidia on human skin were treated with solvent and/or photosensitizer in the dark. In the light controls, the microconidia were treated with solvent (only) in the presence of light. The efficacy of the treatment was expressed as a relative frequency of complete inactivation (killing) of fungal growth detected at day 8 after spore inoculation. This was assessed microscopically with the use of a Zeiss Axiovert 25 (Germany). […] The treatment effect was followed for a period of several months. Every experiment contained 4 to 6 duplicates of all conditions and the experiments were repeated 3 times at least.
PDT of T. rubrum 17 hours after spore inoculation using the ex-vivo model, different concentrations of Sylsens B and a different pH (water medium). The numbers indicate the relative frequency of the fungicidal effect^1. Numbers between brackets give the number of tests performed.
The experiment with Sylsens B was repeated more extensively, for a longer period of time and with more samples. More specifically, the photodynamic efficacy of Sylsens B towards T. rubrum was tested at 17 (FIG. 2a), 48 (FIG. 2b) and 72 hours (FIG. 2c) after spore inoculation on human SC, at the following incubation pH values: Filled diamonds: pH 3.5, filled squares: pH 5.2 and filled triangles: pH 7.4.

[1] = production of 1O2 over the pH range; format: physicochemical; conditions: over the pH range used
[2] = tested on: the fungus cultivated in suspension; test: binding of Sylsens B to the fungus cultivated in suspension / photodynamic effect with competing cations; format: cell-based, T. rubrum; conditions: in the presence of 5 mM CaCl2 at pH 5.2
Experimental: In the above experiments, deuteroporphyrin monomethylether (DP mme), an anionic porphyrin, was used as a control. […] The effect of calcium-ions was investigated by determining the photodynamic effect in the presence of 5 mM CaCl2 at pH 5.2. […] So, PDT may even be used to inactivate (kill) the growing fungus if measures are taken to prevent naturally present calcium from interfering with the treatment, in particular by using a chelating compound such as EDTA.

For `C[n+]1ccc(-c2c3nc(c(-c4cc[n+](C)cc4)c4ccc([nH]4)c(-c4cc[n+](C)cc4)c4nc(c(-c5ccccc5)c5ccc2[nH]5)C=C4)C=C3)cc1.[Cl-].[Cl-].[Cl-]` [Sylsens B, 5,10,15-tris(4-methylpyridinium)-20-phenyl-[21H,23H]-porphine trichloride], the “relative frequency of the fungicidal effect” value (“relative frequency” for short) (T. rubrum; 0.5 μM, pH 3.5, illuminated, PDT 17 h after spore inoculation) was 0 (6), the “relative frequency” value (T. rubrum; 0.5 μM, pH 5.2, illuminated, PDT 17 h after spore inoculation) was 0 (3) and the “relative frequency” value (T. rubrum; 0.5 μM, pH 7.4, illuminated, PDT 17 h after spore inoculation) was 0 (6). For the same compound, the “relative frequency” value (T. rubrum; 1 μM, pH 3.5, dark control, 17 h after spore inoculation) was 0 (2), the “relative frequency” value (T. rubrum; 1 μM, pH 3.5, illuminated, 17 h after spore inoculation) was 0 (6) and the “relative frequency” value (T. rubrum; 1 μM, pH 5.2, dark control, 17 h after spore inoculation) was 0 (2). For the same compound, the “relative frequency” value (T. rubrum; 1 μM, pH 5.2, illuminated, 17 h after spore inoculation) was 0 (3), the “relative frequency” value (T. rubrum; 1 μM, pH 7.4, dark control, 17 h after spore inoculation) was 0 (2) and the “relative frequency” value (T. rubrum; 1 μM, pH 7.4, illuminated, 17 h after spore inoculation) was 0 (6). The “relative frequency” value (T. rubrum; 5 μM, pH 3.5, dark control, 17 h after spore inoculation) was 0 (2), the “relative frequency” value (T. rubrum; 5 μM, pH 3.5, illuminated, 17 h after spore inoculation) was 0.2 (10) and the “relative frequency” value (T. rubrum; 5 μM, pH 5.2, dark control, 17 h after spore inoculation) was 0 (4). For the same compound, the “relative frequency” value (T. rubrum; 5 μM, pH 5.2, illuminated, 17 h after spore inoculation) was 0.43 (7), the “relative frequency” value (T. rubrum; 5 μM, pH 7.4, dark control, 17 h after spore inoculation) was 0 (6) and the “relative frequency” value (T. rubrum; 5 μM, pH 7.4, illuminated, 17 h after spore inoculation) was 0.4 (12). For the same compound, the “relative frequency” value (T. rubrum; 6 μM, pH 3.5, illuminated, 17 h after spore inoculation) was 0.5 (2), the “relative frequency” value (T. rubrum; 6 μM, pH 5.2, illuminated, 17 h after spore inoculation) was 1 (4) and the “relative frequency” value (T. rubrum; 6 μM, pH 7.4, dark control, 17 h after spore inoculation) was 0 (6). For the same compound, the “relative frequency” value (T. rubrum; 6 μM, pH 7.4, illuminated, 17 h after spore inoculation) was 0.2 (12), the “relative frequency” value (T. rubrum; 7 μM, pH 5.2, illuminated, 17 h after spore inoculation) was 1 (4) and the “relative frequency” value (T. rubrum; 8 μM, pH 3.5, illuminated, 17 h after spore inoculation) was 0.75 (4). The “relative frequency” value (T. rubrum; 8 μM, pH 5.2, illuminated, 17 h after spore inoculation) was 1 (4), the “relative frequency” value (T. rubrum; 8 μM, pH 7.4, dark control, 17 h after spore inoculation) was 0 (6) and the “relative frequency” value (T. rubrum; 8 μM, pH 7.4, illuminated, 17 h after spore inoculation) was 0.6 (12). For the same compound, the “relative frequency” value (T. rubrum; 9 μM, pH 5.2, illuminated, 17 h after spore inoculation) was 1 (4), the “relative frequency” value (T. rubrum; 10 μM, pH 3.5, dark control, 17 h after spore inoculation) was 0 (2) and the “relative frequency” value (T. rubrum; 10 μM, pH 3.5, illuminated, 17 h after spore inoculation) was 0.8 (10). The “relative frequency” value (T. rubrum; 10 μM, pH 5.2, dark control, 17 h after spore inoculation) was 0 (4), the “relative frequency” value (T. rubrum; 10 μM, pH 5.2, illuminated, 17 h after spore inoculation) was 1 (9) and the “relative frequency” value (T. rubrum; 10 μM, pH 7.4, dark control, 17 h after spore inoculation) was 0 (6). The “relative frequency” value (T. rubrum; 10 μM, pH 7.4, illuminated, 17 h after spore inoculation) was 0.6 (12), the “relative frequency” value (T. rubrum; 15 μM, pH 3.5, illuminated, 17 h after spore inoculation) was 1 (4) and the “relative frequency” value (T. rubrum; 15 μM, pH 5.2, illuminated, 17 h after spore inoculation) was 1 (4). The “relative frequency” value (T. rubrum; 15 μM, pH 7.4, dark control, 17 h after spore inoculation) was 0.5 (6), the “relative frequency” value (T. rubrum; 15 μM, pH 7.4, illuminated, 17 h after spore inoculation) was 0.7 (12) and the “relative frequency” value (T. rubrum; 20 μM, pH 3.5, dark control, 17 h after spore inoculation) was 0 (2). For the same compound, the “relative frequency” value (T. rubrum; 20 μM, pH 3.5, illuminated, 17 h after spore inoculation) was 1 (4), the “relative frequency” value (T. rubrum; 20 μM, pH 5.2, dark control, 17 h after spore inoculation) was 0 (2) and the “relative frequency” value (T. rubrum; 20 μM, pH 7.4, dark control, 17 h after spore inoculation) was 0.3 (6). The “relative frequency” value (T. rubrum; 20 μM, pH 7.4, illuminated, 17 h after spore inoculation) was 0.6 (12), the “relative frequency” value (T. rubrum; 30 μM, pH 3.5, dark control, 17 h after spore inoculation) was 0.5 (2) and the “relative frequency” value (T. rubrum; 30 μM, pH 3.5, illuminated, 17 h after spore inoculation) was 1 (4). For the same compound, the “relative frequency” value (T. rubrum; 30 μM, pH 5.2, dark control, 17 h after spore inoculation) was 1 (2), the “relative frequency” value (T. rubrum; 30 μM, pH 5.2, illuminated, 17 h after spore inoculation) was 1 (5) and the “relative frequency” value (T. rubrum; 30 μM, pH 7.4, dark control, 17 h after spore inoculation) was 0.3 (6). For the same compound, the “relative frequency” value (T. rubrum; 30 μM, pH 7.4, illuminated, 17 h after spore inoculation) was 0.6 (12), the “relative frequency” value (T. rubrum; 40 μM, pH 3.5, illuminated, 17 h after spore inoculation) was 1 (4) and the “relative frequency” value (T. rubrum; 40 μM, pH 7.4, dark control, 17 h after spore inoculation) was 0 (6). For the same compound, the “relative frequency” value (T. rubrum; 40 μM, pH 7.4, illuminated, 17 h after spore inoculation) was 1 (12), the “relative frequency” value (T. rubrum; 50 μM, pH 3.5, dark control, 17 h after spore inoculation) was 0.5 (2) and the “relative frequency” value (T. rubrum; 50 μM, pH 3.5, illuminated, 17 h after spore inoculation) was 1 (10). The “relative frequency” value (T. rubrum; 50 μM, pH 5.2, dark control, 17 h after spore inoculation) was 1 (2), the “relative frequency” value (T. rubrum; 50 μM, pH 5.2, illuminated, 17 h after spore inoculation) was 1 (3) and the “relative frequency” value (T. rubrum; 50 μM, pH 7.4, dark control, 17 h after spore inoculation) was 0.5 (6). The “relative frequency” value (T. rubrum; 50 μM, pH 7.4, illuminated, 17 h after spore inoculation) was 0.9 (12), the “relative frequency” value (T. rubrum; 65 μM, pH 3.5, dark control, 17 h after spore inoculation) was 1 (2) and the “relative frequency” value (T. rubrum; 65 μM, pH 3.5, illuminated, 17 h after spore inoculation) was 1 (4). The “relative frequency” value (T. rubrum; 65 μM, pH 7.4, dark control, 17 h after spore inoculation) was 1 (6), the “relative frequency” value (T. rubrum; 65 μM, pH 7.4, illuminated, 17 h after spore inoculation) was 1 (12) and the “relative frequency” value (T. rubrum; 80 μM, pH 3.5, dark control, 17 h after spore inoculation) was 0.5 (4). For the same compound, the “relative frequency” value (T. rubrum; 80 μM, pH 3.5, illuminated, 17 h after spore inoculation) was 1 (8), the “relative frequency” value (T. rubrum; 80 μM, pH 5.2, dark control, 17 h after spore inoculation) was 1 (2) and the “relative frequency” value (T. rubrum; 80 μM, pH 5.2, illuminated, 17 h after spore inoculation) was 1 (3). For the same compound, the “relative frequency” value (T. rubrum; 80 μM, pH 7.4, dark control, 17 h after spore inoculation) was 1 (6), the “relative frequency” value (T. rubrum; 80 μM, pH 7.4, illuminated, 17 h after spore inoculation) was 1 (12) and the “cfu in dark controls” value (T. rubrum; 17-hour stage after spore inoculation) was 8 to 12 cfu. For the same compound, the “cfu in dark controls” value (T. rubrum; 48-hour and 72 hour stage, concentrations higher than 80 μM) was 5 to 8 cfu, the “cfu in dark controls” value (T. rubrum; 48-hour and 72 hour stage, up to 80 μM Sylsens B) was 8 to 12 cfu and the “MIC (Minimum Inhibitory Concentration)” value (T. rubrum; pH 5.2, PDT 17 h after spore inoculation) was 5 to 6 µM. The “MIC (Minimum Inhibitory Concentration)” value (T. rubrum; pH 7.4, PDT 17 h after spore inoculation) was “≧50 μM”, the “production of 1O2” value [1] was “substantially constant” and the “binding of Sylsens B to the fungus” value [2] was “eliminated binding”.
